Test results as given in US10472336B2, “Modulators of indoleamine 2,3-dioxygenase” (GlaxoSmithKline Intellectual Property (No.2) Limited, priority 2015, dated 2019).
pEC50: −log10 of the molar value.

Tests used:
[1] = target: T1, indoleamine 2, 3-dioxygenase (IDO1) (Homo sapiens, UniProt P14902); test: PBMC IDOi assay (kynurenine detection by mass spectrometry); type: cell-based; details: IFN-γ and LPS stimulated human PBMC, 2 days
Method: Compounds of the present invention were tested via high-throughput cellular assays utilizing detection of kynurenine via mass spectrometry and cytotoxicity as end-points. For the mass spectrometry and cytotoxicity assays, human peripheral blood mononuclear cells (PBMC) (PB003F; AllCells®, Alameda, Calif.) were stimulated with human interferon-γ (IFN-γ) (Sigma-Aldrich Corporation, St. Louis, Mo.) and lipopolysaccharide from Salmonella minnesota (LPS) (Invivogen, San Diego, Calif.) to induce the expression of indoleamine 2, 3-dioxygenase (IDO1). Compounds with IDO1 inhibitory properties decreased the amount of kynurenine produced by the cells via the tryptophan catabolic pathway. Cellular toxicity due to the effect of compound treatment was measured using CellTiter-Glo® reagent (CTG) (Promega Corporation, Madison, Wis.), which is based on luminescent detection of ATP, an indicator of metabolically active cells.
In preparation for the assays, test compounds were serially diluted 3-fold in DMSO from a typical top concentration of 5 mM and plated at 0.5 μL in 384-well, polystyrene, clear bottom, tissue culture treated plates with lids (Greiner Bio-One, Kremsmünster, Austria) to generate 11-point dose response curves. Low control wells (0% kynurenine or 100% cytotoxicity) contained either 0.5 μL of DMSO in the presence of unstimulated (−IFN-γ/−LPS) PBMCs for the mass spectrometry assay or 0.5 μL of DMSO in the absence of cells for the cytotoxicity assay, and high control wells (100% kynurenine or 0% cytotoxicity) contained 0.5 μL of DMSO in the presence of stimulated (+IFN-γ/+LPS) PBMCs for both the mass spectrometry and cytotoxicity assays.
Frozen stocks of PBMCs were washed and recovered in RPMI 1640 medium (Thermo Fisher Scientific, Inc., Waltham, Mass.) supplemented with 10% v/v heat-inactivated fetal bovine serum (FBS) (Thermo Fisher Scientific, Inc., Waltham, Mass.), and 1× penicillin-streptomycin antibiotic solution (Thermo Fisher Scientific, Inc., Waltham, Mass.). The cells were diluted to 1,000,000 cells/mL in the supplemented RPMI 1640 medium. 50 μL of either the cell suspension, for the mass spectrometry assay, or medium alone, for the cytotoxicity assay, were added to the low control wells, on the previously prepared 384-well compound plates, resulting in 50,000 cells/well or 0 cells/well respectively. IFN-γ and LPS were added to the remaining cell suspension at final concentrations of 100 ng/ml and 50 ng/ml respectively, and 50 μL of the stimulated cells were added to all remaining wells on the 384-well compound plates. The plates, with lids, were then placed in a 37° C., 5% CO2 humidified incubator for 2 days.
Following incubation, the 384-well plates were removed from the incubator and allowed to equilibrate to room temperature for 30 minutes. For the cytotoxicity assay, CellTiter-Glo® was prepared according to the manufacturer's instructions, and 40 μL were added to each plate well. After a twenty minute incubation at room temperature, luminescence was read on an EnVision® Multilabel Reader (PerkinElmer Inc., Waltham, Mass.). For the mass spectrometry assay, 10 μL of supernatant from each well of the compound-treated plates were added to 40 μL of acetonitrile, containing 10 μM of an internal standard for normalization, in 384-well, polypropylene, V-bottom plates (Greiner Bio-One, Kremsmünster, Austria) to extract the organic analytes. Following centrifugation at 2000 rpm for 10 minutes, 10 μL from each well of the acetonitrile extraction plates were added to 90 μL of sterile, distilled H2O in 384-well, polypropylene, V-bottom plates for analysis of kynurenine and the internal standard on the RapidFire 300 (Agilent Technologies, Santa Clara, Calif.) and 4000 QTRAP MS (SCIEX, Framingham, Mass.). MS data were integrated using Agilent Technologies' RapidFire Integrator software, and data were normalized for analysis as a ratio of kynurenine to the internal standard. […]

[2] = target: T1, indoleamine 2, 3-dioxygenase (IDO1); test: HeLa IDOi assay (kynurenine detection by mass spectrometry); type: cell-based; design: human epithelial HeLa cells (CCL-2; host or cells: HeLa cells stimulated with human IFN-γ; details: IFN-γ stimulated human epithelial HeLa cells, 2 days
Method in brief: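 HeLa cells (5,000/well) stimulated with 10 nM IFN-γ to induce IDO1 were exposed to 11-point compound dilutions for 2 days at 37 °C. Supernatant kynurenine was measured by RapidFire MS as a ratio to internal standard; cytotoxicity was read with CellTiter-Glo. Four-parameter fits gave pIC50 and pCC50.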

T1 sequence (P14902 whole entry): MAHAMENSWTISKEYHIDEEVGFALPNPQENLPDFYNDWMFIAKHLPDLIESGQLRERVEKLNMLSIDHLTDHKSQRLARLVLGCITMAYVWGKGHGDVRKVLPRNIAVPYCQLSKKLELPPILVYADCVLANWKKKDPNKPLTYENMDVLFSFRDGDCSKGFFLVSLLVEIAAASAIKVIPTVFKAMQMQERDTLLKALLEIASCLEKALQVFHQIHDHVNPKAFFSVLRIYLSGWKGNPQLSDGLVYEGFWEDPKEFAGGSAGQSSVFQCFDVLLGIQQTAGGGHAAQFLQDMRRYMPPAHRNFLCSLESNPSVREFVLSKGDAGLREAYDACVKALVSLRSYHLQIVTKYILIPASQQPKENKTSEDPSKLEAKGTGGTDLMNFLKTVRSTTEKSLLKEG

With CC(C)CN(c1ccc([C@H](C)CC(=O)O)cc1Nc1nnc(C2CC2)s1)C1CCCCC1 [Example 56, (R)-3-(4-(cyclohexyl(isobutyl)amino)-3-((5-cyclopropyl-1,3,4-thiadiazol-2-yl)amino)phenyl)butanoic acid] as the molecule, how does the pEC50 [1] read?
Its pEC50 is 9.60.

What about the pEC50 [2] of the same molecule?
Its pEC50 is 8.50.

How did the pEC50 [1] turn out when CC(C)CN(c1ccc([C@@H](C)CC(=O)O)cc1Nc1nnc(C2CC2)s1)C1CCCCC1 [Example 57, (S)-3-(4-(cyclohexyl(isobutyl)amino)-3-((5-cyclopropyl-1,3,4-thiadiazol-2-yl)amino)phenyl)butanoic acid] was run?
Its pEC50 is 9.20.

What about the pEC50 [2] of the same molecule?
The pEC50 was 8.70.

What does the source list for CC(C)CN(CC(C)C)c1ccc(C(C)CC(=O)O)cc1Nc1cnccn1 (stereo not shown) [Example 58, 3-(4-(diisobutylamino)-3-(pyrazin-2-ylamino)phenyl)butanoic acid]?
pEC50 [1]: 6.80; pEC50 [2]: 6.50

What does the source list for CC(C)CN(c1ccc(C(C)CC(=O)O)cc1NCc1ccco1)C1CCCCC1 (stereo not shown) [Example 59, 3-(4-(cyclohexyl(isobutyl)amino)-3-((furan-2-ylmethyl)amino)phenyl)butanoic acid]?
pEC50 [1]: 6.70; pEC50 [2]: 6.30

With Cc1nc(C(F)(F)F)sc1Nc1cc(C(C)CC(=O)O)ccc1N(CC(C)C)CC(C)C (stereo not shown) [Example 60, 3-(4-(diisobutylamino)-3-((4-methyl-2-(trifluoromethyl)thiazol-5-yl)amino)phenyl)butanoic acid] as the molecule, how does the pEC50 [1] read?
The pEC50 was 6.40.

What about the pEC50 [2] of the same molecule?
Its pEC50 is 6.30.

Which results are given for CC(C)CN(CC(C)C)c1ccc(C(C)CC(=O)O)cc1Nc1cnc(C2CC2)s1 (stereo not shown) [Example 61, 3-(3-((2-cyclopropylthiazol-5-yl)amino)-4-(diisobutylamino)phenyl)butanoic acid]?
pEC50 [1]: 7.50; pEC50 [2]: 7.20

How did the pEC50 [1] turn out when CC(C)CN(c1ccc([C@@H](C)CC(=O)O)cc1Nc1ccnc(Cl)n1)C1CCCCC1 [Example 62, (S)-3-(3-((2-chloropyrimidin-4-yl)amino)-4-(cyclohexyl(isobutyl)amino)phenyl)butanoic acid] was run?
The pEC50 was 8.60.

What about the pEC50 [2] of the same molecule?
The pEC50 was 8.40.

How did the pEC50 [1] turn out when CC(C)CN(c1ccc([C@H](C)CC(=O)O)cc1Nc1ccnc(Cl)n1)C1CCCCC1 [Example 63, (R)-3-(3-((2-chloropyrimidin-4-yl)amino)-4-(cyclohexyl(isobutyl)amino)phenyl)butanoic acid] was run?
The pEC50 was 7.70.

What about the pEC50 [2] of the same molecule?
The pEC50 was 7.50.

CC(C)CN(c1ccc(C(CC(=O)O)C(F)(F)F)cc1Nc1nc(Cl)ns1)C1CCCCC1 (stereo not shown) [Example 71, 3-(3-((3-Chloro-1,2,4-thiadiazol-5-yl)amino)-4-(cyclohexyl(isobutyl)amino)phenyl)-4,4,4-trifluorobutanoic Acid] was tested. Which pEC50 [1] did it give?
Its pEC50 is 9.10.

And the pEC50 [2]?
The pEC50 was 8.20.

How did the pEC50 [1] turn out when CC(C)CN(c1ccc(C(C)CC(=O)O)cc1NC1=N[C@H](C(F)(F)F)CS1)C1CCCCC1 (stereo partly drawn) [Example 75, 3-(4-(Cyclohexyl(isobutyl)amino)-3-(((R)-4-(trifluoromethyl)-4,5-dihydrothiazol-2-yl)amino)phenyl)butanoic Acid] was run?
Its pEC50 is 7.20.

And the pEC50 [2]?
Its pEC50 is 7.50.

With CC(C)CN(c1ccc(C(C)CC(=O)O)cc1NC1=N[C@@H](C(F)(F)F)CO1)C1CCCCC1 (stereo partly drawn) [Example 76, 3-(4-(Cyclohexyl(isobutyl)amino)-3-(((R)-4-(trifluoromethyl)-4,5-dihydrooxazol-2-yl)amino)phenyl)butanoic acid] as the molecule, how does the pEC50 [1] read?
The pEC50 was 7.70.

And the pEC50 [2]?
The pEC50 was 7.50.
